Laboratory results as given in PMC7023064, “Design, Synthesis, and Evaluation of Novel 2-Methoxyestradiol Derivatives as Apoptotic Inducers through an Intrinsic Apoptosis Pathway” (Biomolecules, 2020).
Where two headings read alike, the source gives them in different places.

Legend:
[1] = test system: normal human liver L-O2 cell lines; experiment: MTT cytotoxicity assay, L-O2; assay type: cell-based; details: mean ± SD of three experiments, No = No inhibition detected
Procedure: (§1) Human breast adenocarcinoma MCF-7 cell lines, human breast cancer MDA-MB-231 cell lines, and the normal human liver L-O2 cell lines were provided by Nanjing KeyGen Biotech Co. Ltd. (Nanjing, China). MCF-7 cells were cultured in a base medium (90% RPMI-1640 and 10% FBS) at 37 °C, 5% CO2 and a saturated humidity atmosphere. MDA-MB-231 cells were cultured in a base medium (90% […] and 10% FBS) at 37 °C, 5% CO2 and a saturated humidity atmosphere. L-O2 cells were cultured in a base medium (90% DMEM and 10% FBS) at 37 °C, 5% CO2 and a saturated humidity atmosphere.
(§2) The cytotoxicity of the tested compounds was determined using the 3-(4,5-dimethyl-2-thiazolyl)-2,5-diphenyl-2-H-tetrazolium bromide (MTT) assay. Cells were seeded in 96-well plates and incubated in a 5% CO2 incubator at 37 °C. When the cells adhered, compounds at different concentrations were added to every well. After incubation for another 72 h, MTT solution (5 mg/mL) was added into each well and cells were incubated for an additional 4 h. The viable cells were stained with MTT and scanned with an electrophotometer at 570 nm. Each concentration treatment was done in triplicate wells. The half maximal inhibitory concentration (IC50) values were estimated by fitting the inhibition data to a dose-dependent curve using a logistic derivative equation.

MCF-7 cells [2] = experiment: Mitochondrial membrane potential analysis (JC-1, flow cytometry); assay type: cell-based, human; details: 72 h, JC-1 (lower right quadrant)
Procedure: MCF-7 cells were incubated in triplicate and treated with compound 11/12a for 72 h. The cells were washed with PBS and stained with JC-1 dye (Keygen, KGA601) under dark conditions according to the manufacturer’s instructions. After incubation, the cells were washed twice with PBS, and the percentage of cells with collapsed or healthy mitochondrial membrane potentials (MMP) was monitored by flow cytometry analysis (FACS Calibur Becton-Dickinson, San Jose, California, USA).

MCF-7 cells [3] = experiment: Hoechst 33258 staining; assay type: cell-based, human; details: 0, 5, 10, and 20 μM, 72 h; at higher concentrations
Procedure: The nuclear morphological changes and apoptotic effects induced by compound 11/12a were detected using Hoechst 33,258 staining. Cells grown on a sterile cover slip were treated with 11/12a for 72 h in six-well tissue culture plates. Cells were collected and mounted on a slide, fixed for 30 min with 4% paraformaldehyde, and washed three times with PBS. Then, cells were stained with Hoechst 33,258 (2 mg/mL in PBS) for 10 min at room temperature in the dark. The cells were subsequently washed three times with PBS and observed with a fluorescence microscope.

[4] = test system: human breast adenocarcinoma MCF-7 cell lines; experiment: MTT cytotoxicity assay, MCF-7; assay type: cell-based
Procedure: as §1, §2

[5] = molecular target: T1, estradiol receptor alpha (ERα) (Homo sapiens, UniProt P03372); experiment: Immunohistochemical (IHC) analysis of ERα; assay type: cell-based; details: 5, 10, and 20 μM, MCF-7 cells, dose-dependent
T1 construct: endogenous in cells; host or cells: MCF-7
T1 sequence (P03372 1-595): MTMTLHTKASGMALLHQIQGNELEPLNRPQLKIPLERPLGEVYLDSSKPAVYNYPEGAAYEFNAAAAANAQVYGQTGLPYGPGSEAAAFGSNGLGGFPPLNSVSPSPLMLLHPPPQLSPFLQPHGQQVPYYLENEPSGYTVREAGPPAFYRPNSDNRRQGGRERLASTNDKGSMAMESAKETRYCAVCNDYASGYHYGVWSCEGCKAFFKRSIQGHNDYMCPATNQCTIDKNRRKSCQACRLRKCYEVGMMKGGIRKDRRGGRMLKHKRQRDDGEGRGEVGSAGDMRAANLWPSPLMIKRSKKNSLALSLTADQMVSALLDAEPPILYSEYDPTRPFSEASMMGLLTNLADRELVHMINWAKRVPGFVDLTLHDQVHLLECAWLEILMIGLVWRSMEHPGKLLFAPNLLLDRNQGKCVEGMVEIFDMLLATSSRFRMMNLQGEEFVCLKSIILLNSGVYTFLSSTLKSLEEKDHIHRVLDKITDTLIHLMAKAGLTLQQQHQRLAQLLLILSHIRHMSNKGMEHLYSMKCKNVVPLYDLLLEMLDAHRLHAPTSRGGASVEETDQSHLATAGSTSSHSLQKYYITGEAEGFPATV
Procedure: MCF-7 cells were seeded in culture plates and treated with compound 11/12a (0, 5, 10, and 20 μM) for 72 h. Cells were collected and mounted on a slide, fixed for 30 min with 4% paraformaldehyde, and washed three times with PBS. 1% Triton X-100 was added to each cell sample, and it was permeabilized at room temperature for 10 min, then washed three times with PBS. Two drops of 3% H2O2-methanol solution were added to each cell section. After being blocked at room temperature for 10 min, the section was washed three times with PBS. Then, 50–100 μL of ready-to-use goat serum was added and cells were incubated for 20 min at room temperature. Before the cell section was incubated at 37 °C for 2 h in a wet box, 50–100 μL of a primary antibody (1:200 dilution) against estradiol receptor alpha (ERα) (Bs-1427R, Bioss Co. Ltd., Beijing, China) was added, and then washed three times with PBS. Subsequently, 50 μL of enhancer was added and cells were incubated for 30 min at room temperature, then washed three times with PBS. Fifty microliters of a universal IgG antibody-Fab fragment-HRP multimer was added dropwise, and the mixture was incubated at 37 °C for 30 min, then soaked and washed three times with PBS. After 2 drops of freshly prepared DAB (DAB-1031, MaXi Biotech Co. Ltd., FuZhou, China) solution were added to each cell section, the dyeing depth was observed under the microscope. […]

17 β-[6-(Uracil-3-yl)-Hexyloxy]-2-Methoxy-Estra-1,3,5(10)-Triene-3-ol [Compound 12a]
IC50 ([1]; 72 h): 69.3 ± 4.37 µM | MCF-7 cells with collapsed MMP (MCF-7 cells [2]; 5 μM): 8.78% | MCF-7 cells with collapsed MMP (MCF-7 cells [2]; 10 μM): 14.56% | MCF-7 cells with collapsed MMP (MCF-7 cells [2]; 20 μM): 39.75% | Hoechst 33258 fluorescence / cell morphology (MCF-7 cells [3]): stronger blue fluorescence | IC50 ([4]; MTT, 72 h, mean ± SD of three experiments, read-out: IC50 MCF-7): 11.2 ± 0.46 µM | IC50 ([4]; Table 2, mean ± SD of three experiments, read-out: IC50 for MCF-7): 11.2 ± 0.46 µM | pIC50 for MCF-7 ([4]; pIC50 = −log(IC50)): 4.95 | interaction with ERα (nuclear colour, IOD value) [5]: specific binding

COc1cc2c(cc1O)CC[C@@H]1[C@@H]2CC[C@]2(C)[C@@H](OCCCCCCCCn3c(=O)ccn([C@@H]4O[C@H](CO)[C@@H](O)[C@H]4O)c3=O)CC[C@@H]12 [Compound 11, 17 β-[8-(1-β-D-Ribofuranosyluracil-3-yl)-Octyloxy]-2-Methoxy-Estra-1,3,5(10)-Triene-3-ol]
IC50 ([1]; Homo sapiens, L02, 72 h): > 100 µM | MCF-7 cells with collapsed MMP (MCF-7 cells [2]; 5 μM): 7.95% | MCF-7 cells with collapsed MMP (MCF-7 cells [2]; 10 μM): 14.13% | MCF-7 cells with collapsed MMP (MCF-7 cells [2]; 20 μM): 38.88% | Hoechst 33258 fluorescence / cell morphology (MCF-7 cells [3]): stronger blue fluorescence | IC50 ([4]; Homo sapiens, MCF7, MTT, 72 h, mean ± SD of three experiments, read-out: IC50 MCF-7): 13.9 ± 0.16 µM | IC50 ([4]; Homo sapiens, MCF7, Table 2, mean ± SD of three experiments, read-out: IC50 for MCF-7): 13.9 ± 0.16 µM | IC50 ([4]; Homo sapiens, MCF7, pIC50 = −log(IC50), read-out: pIC50 for MCF-7 (converted)): 13.8 µM | interaction with ERα (nuclear colour, IOD value) [5]: specific binding
